Assay results reported in patent publication EP4624454A1, “NON-COVALENT DIMER CATION, AND SALT THEREOF, PREPARATION METHOD THEREFOR AND USE THEREOF” (Suzhou Protonation Chain Biotechnology Co., Ltd, priority 2022, dated 2024).

Tests used:
[1] = test system: SH-SY5Y human neuroblastoma cells; experiment: Parkinson's disease cell model (6-OHDA), cell viability; conditions: 24 h, read-out: Cell viability (%)
Method: A blank control group (without 6-OHDA) and a model group (with 6-OHDA but without the salt of this example or selegiline) were set.
SH-SY5Y human neuroblastoma cells were uniformly inoculated into a 96-well plate, about 5,000 cells per well. The cells were cultured in a complete DMEM/F12 medium for 6 h. After the cells were completely adhered to the wall, all the media were removed, 100 µL of serum-free DMEM/F12 medium, i.e., a cell culture solution, containing 150 µmol/L of 6-OHDA (a serum-free DMEM/F12 medium without 6-OHDA was added to the blank group), was added to each well, and the cells were incubated and cultured for 24 h.
Then, all the media were removed again, 100 µL of each of serum-free DMEM/ F12 media, i.e., cell culture solutions, containing 0.025 g/mL, 0.05 g/mL, 0.1 g/mL, 0.2 g/mL, 0.4 g/mL and 0.8 g/mL of compound of experimental or control groups (a serum-free DMEM/ F12 medium without compound of experimental or control groups was added to the blank group and a model group) were added to each well according to the groups, and the cells were cultured in a cell culture solution for 24 h.

[2] = test system: GES-1 human gastric mucosal epithelial cells; experiment: cells; format: cell-based; conditions: GES1, 24 h, read-out: Cell viability (%)
Method: Long-term alcoholics were prone to gastric mucosal damage due to long-term alcohol damage.
A blank control group (without ethanol) and a model group (with ethanol but without the salt or glycyrrhetinic acid in the examples) were set.
The cells were cultured in a complete RPMI 1640 medium for 6 h.
Then, the cell viability was detected. […] Table 2 Cell viability of ethanol-induced damage models of gastric mucosal epithelial cells

Row | SMILES | viability at 25 µg/mL [1] [%] | viability at 50 µg/mL [1] [%] | viability at 100 µg/mL [1] [%] | viability at 200 µg/mL [1] [%] | viability at 400 µg/mL [1] [%] | viability at 800 µg/mL [1] [%] | viability at 25 µg/mL [2] [%] | viability at 50 µg/mL [2] [%] | viability at 100 µg/mL [2] [%] | viability at 200 µg/mL [2] [%] | viability at 400 µg/mL [2] [%] | viability at 800 µg/mL [2] [%]
1 | C#CCN(C)[C@H](C)Cc1ccccc1 [Selegiline, selegiline] | 33.4 | 37.5 | 43.3 | 49.9 | 58.5 | 69.8 |  |  |  |  |  | 
2 | CC1(C)[C@@H](O)CC[C@]2(C)[C@H]3C(=O)C=C4[C@@H]5C[C@@](C)(C(=O)O)CC[C@]5(C)CC[C@@]4(C)[C@]3(C)CC[C@@H]12 [Glycyrrhetinic acid, glycyrrhetinic acid] |  |  |  |  |  |  | 59.4 | 61.8 | 64.3 | 65.2 | 68.9 | 71.9
